Our source for the IC50 values is patent publication US8791102B2, “Acetanilide sphingosine-1-phosphate receptor antagonists” (Exelixis, Inc., priority 2008, dated 2014).

The experiment deals with T1, human S1P1 receptors (Homo sapiens, UniProt P21453).
T1 construct: host or cells: HEK293
Put plainly: S1P1R antagonist assay (fluorescent membrane potential dye, cAMP readout). Type of experiment: cell-based. To be noted: HEK293 cells expressing human S1P1 receptors and CNG channel; 500 nM NECA; S1P1R agonist 10 nM; 90 minutes; read-out: EC50 or IC50 value.

T1 sequence (P21453 whole entry): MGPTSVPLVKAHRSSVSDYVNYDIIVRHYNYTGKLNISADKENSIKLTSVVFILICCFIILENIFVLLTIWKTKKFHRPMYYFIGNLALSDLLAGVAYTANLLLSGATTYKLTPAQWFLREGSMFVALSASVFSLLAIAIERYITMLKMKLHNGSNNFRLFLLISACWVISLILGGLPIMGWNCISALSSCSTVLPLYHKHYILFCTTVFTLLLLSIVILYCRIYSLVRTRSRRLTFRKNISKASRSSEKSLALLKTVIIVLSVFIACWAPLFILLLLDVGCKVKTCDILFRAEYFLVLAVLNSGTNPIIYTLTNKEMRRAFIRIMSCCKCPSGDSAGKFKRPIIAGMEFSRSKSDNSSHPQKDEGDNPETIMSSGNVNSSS

`O=C(CN1CCCC2CCCCC21)N[C@@H](COCc1ccccc1)C(=O)Nc1ccc(Oc2ccc(F)cc2)cc1` (stereo partly drawn) [Compound 45, (2S)-3-(benzyloxy)-N-(4-(4-fluorophenoxy)phenyl)-2-(2-(octahydroquinolin-1(2H)-yl)acetamido)propanamide]: the IC50 was greater than 1000 nM. Then `O=C(NC(COCc1ccccc1)C(=O)Nc1ccc(Oc2ccccc2)cc1)c1ccc(Cl)cc1F` (centres unmarked) [Compound 387, 4-chloro-2-fluoro-N-(2-oxo-1-{[(phenylmethyl)oxy]methyl}-2-{[4-(phenyloxy)phenyl]amino}ethyl)benzamide], with greater than 1000 nM; and `O=C(Nc1ccc(Oc2ccc(F)cc2)cc1)[C@@H]1C[C@@H](Cc2ccc(F)cc2Cl)CN1C(=O)Cn1nccn1` [Compound 5, (2S,4R)-1-(2-(2H-1,2,3-triazol-2-yl)acetyl)-4-(2-chloro-4-fluorobenzyl)-N-(4-(4-fluorophenoxy)phenyl)pyrrolidine-2-carboxamide], with no more than 300 nM.

In the case of `O=C(Nc1ccc(Oc2ccc(F)cc2)cc1)[C@@H]1C[C@@H](Cc2ccccc2)CN1C(=O)Cn1ccnn1` [Compound 10, (2S,4R)-1-(2-(1H-1,2,3-triazol-1-yl)acetyl)-4-benzyl-N-(4-(4-fluorophenoxy)phenyl)pyrrolidine-2-carboxamide], the IC50 was no more than 300 nM. `O=C(Nc1ccc(Oc2ccc(F)cc2)cc1)[C@@H]1C[C@@H](Cc2ccc(F)cc2)CN1C(=O)Cn1cncn1` [Compound 141, (2S,4R)-1-(2-(1H-1,2,4-triazol-1-yl)acetyl)-4-(4-fluorobenzyl)-N-(4-(4-fluorophenoxy)phenyl)pyrrolidine-2-carboxamide]: the IC50 was no more than 300 nM. As for `O=C(Cc1c[nH]cn1)N[C@@H](COCc1ccccc1)C(=O)Nc1ccc(Oc2ccc(F)cc2)cc1` [Compound 131, (S)-2-(2-(1H-imidazol-5-yl)acetamido)-3-benzyloxy-N-(4-(4-fluorophenoxy)phenyl)propanamide], the IC50 was no more than 300 nM. Turning to `O=C(CN1CCC(N2CCCC2)CC1)N[C@@H](COCc1ccccc1)C(=O)Nc1ccc(Oc2ccc(F)cc2)cc1` [Compound 43, (S)-3-(benzyloxy)-N-(4-(4-fluorophenoxy)phenyl)-2-(2-(4-(pyrrolidin-1-yl)piperidin-1-yl)acetamido)propanamide], the IC50 was greater than 1000 nM. Then `O=C(NC(COCc1ccccc1)C(=O)Nc1ccc(Oc2ccccc2)cc1)c1ccc(-c2cccc(C(F)(F)F)c2)o1` (centres unmarked) [Compound 321, N-(2-oxo-1-{[(phenylmethyl)oxy]methyl}-2-{[4-(phenyloxy)phenyl]amino}ethyl)-5-[3-(trifluoromethyl)phenyl]furan-2-carboxamide], with greater than 1000 nM.

As for `O=C(Cc1cnc[nH]1)N[C@@H](COCc1ccccc1)C(=O)Nc1ccc(Cc2ccccc2)cc1` [Compound 200, (S)-2-(2-(1H-imidazol-4-yl)acetamido)-3-(benzyloxy)-N-(4-benzylphenyl)propanamide], the IC50 is no more than 300 nM. `CCOc1ccc(C(=O)NC(COCc2ccccc2)C(=O)Nc2ccc(Oc3ccccc3)cc2)cc1` (centres unmarked) [Compound 281, 4-(ethyloxy)-N-(2-oxo-1-{[(phenylmethyl)oxy]methyl}-2-{[4-(phenyloxy)phenyl]amino}ethyl)benzamide]: the IC50 was greater than 1000 nM. `O=C(NC(COCc1ccccc1)C(=O)Nc1ccc(Oc2ccccc2)cc1)c1ccc(Cl)cc1` (centres unmarked) [Compound 276, 4-chloro-N-(2-oxo-1-{[(phenylmethyl)oxy]methyl}-2-{[4-(phenyloxy)phenyl]amino}ethyl)benzamide]: the IC50 was greater than 1000 nM. With `CSc1ncccc1C(=O)NC(COCc1ccccc1)C(=O)Nc1ccc(Oc2ccccc2)cc1` (centres unmarked) [Compound 28, N-(3-(benzyloxy)-1-oxo-1-(4-phenoxyphenylamino)propan-2-yl)-2-(methylthio)nicotinamide], the 50% inhibitory concentration (IC50) is greater than 1000 nM. As for `Cn1cnc(CC(=O)N[C@@H](COCc2ccccc2)C(=O)Nc2ccc(Oc3ccccc3)cc2)c1` [Compound 195, (S)-2-(2-(1-methyl-1H-imidazol-4-yl)acetamido)-3-benzyloxy-N-(4-phenoxyphenyl)propanamide], the IC50 is no more than 300 nM. In the case of `COc1cc(C(=O)NC(COCc2ccccc2)C(=O)Nc2ccc(Oc3ccccc3)cc2)cc(OC)c1OC` (centres unmarked) [Compound 291, 3,4,5-tris(methyloxy)-N-(2-oxo-1-{[(phenylmethyl)oxy]methyl}-2-{[4-(phenyloxy)phenyl]amino}ethyl)benzamide], the IC50 is greater than 1000 nM. Take `O=C(Nc1ccc(Oc2ccc(F)cc2)cc1)[C@@H]1C[C@@H](Cc2c(F)cc(F)cc2F)CN1C(=O)Cn1ccnn1` [Compound 170, (2S,4R)-1-(2-(1H-1,2,3-triazol-1-yl)acetyl)-N-(4-(4-fluorophenoxy)phenyl)-4-(2,4,6-trifluorobenzyl)pyrrolidine-2-carboxamide]: the IC50 was no more than 300 nM. On to `O=C(CCCc1ccccc1)NC(COCc1ccccc1)C(=O)Nc1ccc(Oc2ccccc2)cc1` (centres unmarked) [Compound 300, N-(2-oxo-1-{[(phenylmethyl)oxy]methyl}-2-{[4-(phenyloxy)phenyl]amino}ethyl)-4-phenylbutanamide], for which the IC50 is greater than 1000 nM. As for `O=C(Cc1cnc[nH]1)N[C@@H](CCCc1ccccc1)C(=O)Nc1ccc(Oc2ccccc2)cc1` [Compound 1, (S)-2-(2-(1H-imidazol-5-yl)acetamido)-5-phenyl-N-(4-phenoxyphenyl)pentanamide], the IC50 is no more than 300 nM. Then `O=C(Cc1cc(Cl)ccc1Cl)N[C@@H](COCc1ccccc1)C(=O)Nc1ccc(Oc2ccccc2)cc1` [Compound 199, (S)-2-(2-(2,5-dichlorophenyl)acetamido)-3-benzyloxy-N-(4-phenoxyphenyl)propanamide], with 300 to 1000 nM; and `O=C(COc1cccc2ccccc12)NC(COCc1ccccc1)C(=O)Nc1ccc(Oc2ccccc2)cc1` (centres unmarked) [Compound 371, N-(2-oxo-1-{[(phenylmethyl)oxy]methyl}-2-{[4-(phenyloxy)phenyl]amino}ethyl)-2-(naphthalen-1-yloxy)acetamide], with greater than 1000 nM; and `Cc1n[nH]c(C)c1CC(=O)N[C@@H](COCc1ccc(F)cc1)C(=O)Nc1ccc(Oc2ccc(F)cc2)cc1` [Compound 258, (S)-2-(2-(3,5-dimethyl-1H-pyrazol-4-yl)acetamido)-3-(4-fluorobenzyloxy)-N-(4-(4-fluorophenoxy)phenyl)propanamide], with no more than 300 nM. Then `CC(=O)N1CCN(CC(=O)N[C@@H](COCc2ccccc2)C(=O)Nc2ccc(Oc3ccc(F)cc3)cc2)CC1` [Compound 236, (S)-2-(2-(4-acetylpiperazin-1-yl)acetamido)-3-(benzyloxy)-N-(4-(4-fluorophenoxy)phenyl)propanamide], with 300 to 1000 nM; and `N#CCC(=O)N1C[C@H](Cc2ccccc2)C[C@H]1C(=O)Nc1ccc(Oc2ccc(F)cc2)cc1` [Compound 129, (2S,4R)-4-benzyl-1-(2-cyanoacetyl)-N-(4-(4-fluorophenoxy)phenyl)pyrrolidine-2-carboxamide], with no more than 300 nM; and `O=C(Nc1ccc(Oc2ccc(F)cc2)cc1)[C@@H]1C[C@@H](Cc2ccccc2)CN1C(=O)CN1CCOCC1` [Compound 116, (2S,4R)-4-benzyl-N-(4-(4-fluorophenoxy)phenyl)-1-(2-morpholinoacetyl)pyrrolidine-2-carboxamide], with no more than 300 nM. Under `O=C(Cn1cnnn1)N[C@@H](COCc1ccccc1)C(=O)Nc1ccc(Oc2ccccc2)cc1` [Compound 144, (S)-2-(2-(1H-tetrazol-1-yl)acetamido)-3-benzyloxy-N-(4-phenoxyphenyl)propanamide] stands no more than 300 nM; under `CCCCOCC(=O)N1C[C@H](Cc2ccccc2)C[C@H]1C(=O)Nc1ccc(Oc2ccc(F)cc2)cc1` [Compound 38, (2S,4R)-4-benzyl-1-(2-butoxyacetyl)-N-(4-(4-fluorophenoxy)phenyl)pyrrolidine-2-carboxamide], no more than 300 nM; under `O=C(N[C@@H]1C[C@@H](C(=O)Nc2ccc(Oc3ccc(F)cc3)cc2)N(C(=O)Cc2cnc[nH]2)C1)OCc1ccccc1` [Compound 253, benzyl (3R,5S)-1-(2-(1H-imidazol-5-yl)acetyl)-5-(4-(4-fluorophenoxy)phenylcarbamoyl)pyrrolidin-3-ylcarbamate], no more than 300 nM. Take `O=C(CN1CCN(C(=O)c2ccco2)CC1)N[C@@H](COCc1ccccc1)C(=O)Nc1ccc(Oc2ccc(F)cc2)cc1` [Compound 223, (S)-3-(benzyloxy)-N-(4-(4-fluorophenoxy)phenyl)-2-(2-(4-(furan-2-carbonyl)piperazin-1-yl)acetamido)propanamide]: the IC50 is 300 to 1000 nM. Consider `CS(=O)(=O)c1ccc(C(=O)NC(COCc2ccccc2)C(=O)Nc2ccc(Oc3ccccc3)cc2)cc1` (centres unmarked) [Compound 333, 4-(methylsulfonyl)-N-(2-oxo-1-{[(phenylmethyl)oxy]methyl}-2-{[4-(phenyloxy)phenyl]amino}ethyl)benzamide], for which the IC50 was greater than 1000 nM. Turning to `O=C(CCC(=O)C1CC1)NC(COCc1ccccc1)C(=O)Nc1ccc(Oc2ccccc2)cc1` (centres unmarked) [Compound 186, N-(3-(benzyloxy)-1-oxo-1-(4-phenoxyphenylamino)propan-2-yl)-4-cyclopropyl-4-oxobutanamide], the IC50 fell in the range of 300 to 1000 nM. As to `CCN(CC)C1CCN(CC(=O)N[C@@H](COCc2ccccc2)C(=O)Nc2ccc(Oc3ccc(F)cc3)cc2)C1` (stereo partly drawn) [Compound 109, (2S)-3-(benzyloxy)-2-(2-(3-(diethylamino)pyrrolidin-1-yl)acetamido)-N-(4-(4-fluorophenoxy)phenyl)propanamide], the IC50 was greater than 1000 nM. Regarding `O=C(CCC(=O)N1C[C@H](Cc2ccccc2)C[C@H]1C(=O)Nc1ccc(Oc2ccc(F)cc2)cc1)c1cccs1` [Compound 91, (2S,4R)-4-benzyl-N-(4-(4-fluorophenoxy)phenyl)-1-(4-oxo-4-(thien-2-yl)butanoyl)pyrrolidine-2-carboxamide], the IC50 is no more than 300 nM. On to `O=C(Nc1ccc(Oc2ccc(F)cc2)cc1)[C@@H]1C[C@@H](Cc2ccc(F)cc2F)CN1C(=O)Cn1ccnn1` [Compound 267, (2S,4R)-1-(2-(1H-1,2,3-triazol-1-yl)acetyl)-4-(2,4-difluorobenzyl)-N-(4-(4-fluorophenoxy)phenyl)pyrrolidine-2-carboxamide], for which the concentration for half-maximal inhibition (IC50) was no more than 300 nM.
